According to patent publication US7517874B2 (priority 2007, dated 2009):
Where two headings read alike, the source gives them in different places.

Columns and labels:
rat CB2 receptor (rCB2) = target: T1, rat CB2 receptor (rCB2) (Rattus norvegicus, UniProt Q9QZN9); assay: cell-based; type: cell-based; settings: for +/− RCB2: agonist or inverse agonist at rCB2
T1 sequence (Q9QZN9 1-360): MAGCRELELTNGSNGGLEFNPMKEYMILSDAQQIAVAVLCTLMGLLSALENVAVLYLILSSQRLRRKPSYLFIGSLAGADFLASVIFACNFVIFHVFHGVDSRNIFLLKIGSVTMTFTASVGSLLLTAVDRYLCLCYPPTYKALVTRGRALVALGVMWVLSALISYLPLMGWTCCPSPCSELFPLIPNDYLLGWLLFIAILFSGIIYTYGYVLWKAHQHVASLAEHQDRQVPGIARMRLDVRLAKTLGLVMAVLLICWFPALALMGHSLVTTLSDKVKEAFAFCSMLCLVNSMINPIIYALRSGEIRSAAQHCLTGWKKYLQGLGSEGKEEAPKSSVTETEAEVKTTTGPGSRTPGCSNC
Description: (§1) The ability of compounds to act as agonists or inverse agonists at human CB2 and CB1 receptors (hCB2, hCB1, respectively) and at the rat CB2 receptor (rCB2) was determined by measuring changes in intracellular cAMP levels. Chinese Hamster Ovary (CHO-K1) cell lines stably expressing hCB2 (Genebank: X74328) or hCB1 (Genebank: X54937) were purchased from Euroscreen (Gosselies, Belgium). The rat CB2 receptor was expressed from genomic DNA (provided by M. Abood, California Pacific Medical Center) in CHO-K1 cells from expression plasmid vector, pcDNA3.1.
(§2) Cell lines were grown in suspension in EX-CELL 302 CHO Serum-free medium (Sigma, cat #14324C) supplemented with 1% Fetal Bovine Serum, glutamine and non-essential amino-acids under 0.4 mg/mL G418 selection.
(§3) Receptor mediated responses were determined by measuring changes in intracellular cAMP using LANCE cAMP detection kit (cat #AD0264, Perkin Elmer, Wellesley, Mass.) based on time-resolved fluorescence resonance energy transfer (TR-FRET). Changes in cAMP were determined in cells pre-incubated with IBMX (isobutyl methylxanthine) and prestimulated with NKH-477 (a water soluble forskolin derivative, cat #1603, Tocris, Ellisville, Mo.) to increase basal cAMP levels as detailed below.
(§4) On the day of the experiment, cells were spun at low speed for 5 min at room temperature. The supernatant was removed and cells were resuspended in stimulation buffer (Hanks Buffered Salt Solution/5 mM HEPES, containing 0.5 mM IBMX (cat #17018, Sigma) and 0.02% BSA (Perkin-Elmer, cat #CR84-100)). Cell clumps were removed by filtering through cell strainer 40 μm (BD Falcon, Discovery Labware, Bedford, Mass.) and diluted to 2×10^5 cells/mL. Antibody supplied with the LANCE cAMP immunoassay kit was then added according to the manufacturer's instructions. An aliquot of cells was taken for un-induced controls. To the remaining cells was added NKH-477 (a water soluble forskolin derivative, Tocris cat #1603) to a final concentration of 2-8 μM. Cells were then incubated for 30 min at room temperature prior to adding to Proxiplates containing test compounds (final DMSO concentration was less than 0.5%) with a Multidrop bulk dispenser, followed by a sixty minute incubation at room temperature. The response was stopped by addition of the detection mix supplied with the LANCE kit. The reagents were allowed to equilibrate for three hours prior to reading on an Envision multi-mode detector (Perkin-Elmer). TR-FRET was measured using a 330-380 nm excitation filter, a 665 nm emission filter, dichroic mirror 380 nm and Z=1 mm. Cyclic AMP concentrations in each well were back-calculated from a cAMP standard curve run concurrently during each assay. Each plate contained 16 wells of forskolin stimulated cells and 16 wells of forskolin plus CP55,940-treated cells. Cells were treated with 1 μM CP55,940 (Tocris cat. #0949). Concentrations of cAMP were expressed as a percent of the difference of these two groups of wells. Concentration-response data including EC50 (the concentration of compound producing 50% of the maximal response) and intrinsic activity (the percent maximal activation compared to full activation by CP55,940) were determined using a four-parameter non-linear regression algorithm (Xlfit equation 251, IDBS).

[1] = target: human CB1 receptor (hCB1) (Homo sapiens, UniProt P21554); assay: cell-based; type: cell-based
Description: as §1, §2, §3, §4

[2] = groups >100 nM-10 μM and >10 μM, cAMP, CHO-K1 hCB1, read-out: EC50 HCB1

human CB1 receptor (hCB1), sequence (P21554 whole entry): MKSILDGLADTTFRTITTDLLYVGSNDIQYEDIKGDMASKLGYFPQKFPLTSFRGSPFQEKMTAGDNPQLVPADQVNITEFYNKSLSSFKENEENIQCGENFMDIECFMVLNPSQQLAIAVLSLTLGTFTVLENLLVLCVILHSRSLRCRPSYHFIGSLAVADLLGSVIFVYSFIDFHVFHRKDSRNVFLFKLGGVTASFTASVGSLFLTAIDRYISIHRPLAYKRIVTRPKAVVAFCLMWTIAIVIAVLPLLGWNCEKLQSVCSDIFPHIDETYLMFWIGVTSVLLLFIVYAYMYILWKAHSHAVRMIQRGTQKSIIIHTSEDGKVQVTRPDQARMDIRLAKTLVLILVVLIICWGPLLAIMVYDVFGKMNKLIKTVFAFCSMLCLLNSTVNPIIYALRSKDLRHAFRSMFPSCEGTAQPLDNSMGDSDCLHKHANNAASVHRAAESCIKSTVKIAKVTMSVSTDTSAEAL

SMILES | EC50 [1] | further results
CNC(=O)[C@@H](NC(=O)c1nc(-c2ccccc2)n2c1CN(C(=O)OC(C)(C)C)CC2)C(C)(C)C [Compound 1, (S)-tert-butyl 1-(3,3-dimethyl-1-(methylamino)-1-oxobutan-2-ylcarbamoyl)-3-phenyl-5,6-dihydroimidazo[1,5-a]pyrazine-7(8H)-carboxylate] | > 10000 nM | +/− RCB2 (rat CB2 receptor (rCB2)): −
CNC(=O)[C@@H](NC(=O)c1nc(-c2ccccc2)n2c1CNCC2)C(C)(C)C [Compound 2, (S)-N-(3,3-dimethyl-1-(methylamino)-1-oxobutan-2-yl)-3-phenyl-5,6,7,8-tetrahydroimidazo[1,5-a]pyrazine-1-carboxamide] | > 10000 nM | +/− RCB2 (rat CB2 receptor (rCB2)): +
CNC(=O)[C@@H](NC(=O)c1nc(-c2cccc(C(F)(F)F)c2)n2c1CNCC2)C(C)(C)C [Compound 3, (S)-N-(3,3-dimethyl-1-(methylamino)-1-oxobutan-2-yl)-3-(3-(trifluoromethyl)phenyl)-5,6,7,8-tetrahydroimidazo[1,5-a]pyrazine-1-carboxamide] | > 10000 nM | +/− RCB2 (rat CB2 receptor (rCB2)): −
CNC(=O)[C@@H](NC(=O)c1nc(-c2cccc(F)c2)n2c1CNCC2)C(C)(C)C [Compound 4, (S)-N-(3,3-dimethyl-1-(methylamino)-1-oxobutan-2-yl)-3-(3-fluorophenyl)-5,6,7,8-tetrahydroimidazo[1,5-a]pyrazine-1-carboxamide] | > 10000 nM | EC50 (rat CB2 receptor (rCB2)): > 10 µM
CNC(=O)[C@@H](NC(=O)c1nc(-c2ccc(C(F)(F)F)cc2)n2c1CNCC2)C(C)(C)C [Compound 5, (S)-N-(3,3-dimethyl-1-(methylamino)-1-oxobutan-2-yl)-3-(4-(trifluoromethyl)phenyl)-5,6,7,8-tetrahydroimidazo[1,5-a]pyrazine-1-carboxamide] | > 10000 nM | +/− RCB2 (rat CB2 receptor (rCB2)): −
CNC(=O)[C@@H](NC(=O)c1nc(-c2csc3ccccc23)n2c1CNCC2)C(C)(C)C [Compound 20, (S)-3-(benzo[b]thiophen-3-yl)-N-(3,3-dimethyl-1-(methylamino)-1-oxobutan-2-yl)-5,6,7,8-tetrahydroimidazo[1,5-a]pyrazine-1-carboxamide] | > 10000 nM | 
CNC(=O)[C@@H](NC(=O)c1nc(-c2ccsc2)n2c1CN(C)CC2)C(C)(C)C [Compound 73, (S)-N-(3,3-dimethyl-1-(methylamino)-1-oxobutan-2-yl)-7-methyl-3-(thiophen-3-yl)-5,6,7,8-tetrahydroimidazo[1,5-a]pyrazine-1-carboxamide] | > 10000 nM | 
CNC(=O)[C@@H](NC(=O)c1nc(-c2ccsc2)n2c1CN(CC1CC1)CC2)C(C)(C)C [Compound 74, (S)-7-(cyclopropylmethyl)-N-(3,3-dimethyl-1-(methylamino)-1-oxobutan-2-yl)-3-(thiophen-3-yl)-5,6,7,8-tetrahydroimidazo[1,5-a]pyrazine-1-carboxamide] | > 10000 nM | 
CNC(=O)[C@H](C)NC(=O)c1nc(-c2ccccc2)n2c1CN(C)CC2 [Compound 78, (S)-7-methyl-N-(1-(methylamino)-1-oxopropan-2-yl)-3-phenyl-5,6,7,8-tetrahydroimidazo[1,5-a]pyrazine-1-carboxamide] |  | EC50 [1, 2]: > 10000 nM
CNC(=O)[C@@H](NC(=O)c1nc(-c2cscc2C)n2c1CN(C)CC2)C(C)(C)C [Compound 81, (S)-N-(3,3-dimethyl-1-(methylamino)-1-oxobutan-2-yl)-7-methyl-3-(4-methylthiophen-3-yl)-5,6,7,8-tetrahydroimidazo[1,5-a]pyrazine-1-carboxamide] | > 10000 nM | 
CC(C)(CO)CNC(=O)c1nc(-c2ccccc2)n2c1CN(CC1CC1)CC2 [Compound 83, 7-(cyclopropylmethyl)-N-(3-hydroxy-2,2-dimethylpropyl)-3-phenyl-5,6,7,8-tetrahydroimidazo[1,5-a]pyrazine-1-carboxamide] |  | EC50 [1, 2]: > 10000 nM
CC(C)(C)[C@@H](CO)NC(=O)c1nc(-c2ccccc2)n2c1CN(CC1CC1)CC2 [Compound 84, (S)-7-(cyclopropylmethyl)-N-(1-hydroxy-3,3-dimethylbutan-2-yl)-3-phenyl-5,6,7,8-tetrahydroimidazo[1,5-a]pyrazine-1-carboxamide] | > 10000 nM | 
CNC(=O)[C@@H](NC(=O)c1nc(-c2ccccc2)n2c1CN(S(=O)(=O)c1ccc(C(F)(F)F)cc1)CC2)C(C)(C)C [Compound 107, (S)-N-(3,3-dimethyl-1-(methylamino)-1-oxobutan-2-yl)-3-phenyl-7-(4-(trifluoromethyl)phenylsulfonyl)-5,6,7,8-tetrahydroimidazo[1,5-a]pyrazine-1-carboxamide] | > 10000 nM | 
CNC(=O)[C@@H](NC(=O)c1nc(-c2ccccc2)n2c1CN(S(=O)(=O)c1ccc(C#N)cc1)CC2)C(C)(C)C [Compound 108, (S)-7-(4-cyanophenylsulfonyl)-N-(3,3-dimethyl-1-(methylamino)-1-oxobutan-2-yl)-3-phenyl-5,6,7,8-tetrahydroimidazo[1,5-a]pyrazine-1-carboxamide] | > 10000 nM | 
CNC(=O)[C@@H](NC(=O)c1nc(-c2ccsc2)n2c1CN(S(=O)(=O)c1ccc(F)cc1)CC2)C(C)(C)C [Compound 109, (S)-N-(3,3-dimethyl-1-(methylamino)-1-oxobutan-2-yl)-7-(4-fluorophenylsulfonyl)-3-(thiophen-3-yl)-5,6,7,8-tetrahydroimidazo[1,5-a]pyrazine-1-carboxamide] | > 10000 nM | 
CNC(=O)[C@@H](NC(=O)c1nc(Br)n2c1CN(C)CC2)C(C)(C)C [Compound 203, (S)-3-bromo-N-(3,3-dimethyl-1-(methylamino)-1-oxobutan-2-yl)-7-methyl-5,6,7,8-tetrahydroimidazo[1,5-a]pyrazine-1-carboxamide] | > 10000 nM | 
CNC(=O)[C@@H](NC(=O)c1nc(-c2ccccc2)n2c1C[N+](C)(C)CC2)C(C)(C)C [Compound 311, (S)-1-(3,3-dimethyl-1-(methylamino)-1-oxobutan-2-ylcarbamoyl)-7,7-dimethyl-3-phenyl-5,6,7,8-tetrahydroimidazo[1,5-a]pyrazin-7-ium iodide] | > 10000 nM | 
CNC(=O)[C@@H](NC(=O)c1nc(Br)n2c1CN(C)CCC2)C(C)(C)C [Compound 324, (S)-3-bromo-N-(3,3-dimethyl-1-(methylamino)-1-oxobutan-2-yl)-8-methyl-6,7,8,9-tetrahydro-5H-imidazo[1,5-a][1,4]diazepine-1-carboxamide] | > 10000 nM | 
CNC(=O)[C@@H](NC(=O)c1nc(C2=CCCCO2)n2c1CN(C)CCC2)C(C)(C)C [Compound 452, (S)-3-(3,4-dihydro-2H-pyran-6-yl)-N-(3,3-dimethyl-1-(metylamino)-1-oxobutan-2-yl)-8-methyl-6,7,8,9-tetrahydro-5H-imidazo[1,5-a][1,4]diazepine-1-carboxamide] |  | +/− RCB2 (rat CB2 receptor (rCB2)): +
CNC(=O)[C@@H](NC(=O)c1nc(C2CCCC2)n2c1CN(C)CCC2)C(C)(C)C [Compound 497, (S)-3-cyclopentyl-N-(3,3-dimethyl-1-(methylamino)-1-oxobutan-2-yl)-8-methyl-6,7,8,9-tetrahydro-5H-imidazo[1,5-a][1,4]diazepine-1-carboxamide] |  | +/− RCB2 (rat CB2 receptor (rCB2)): +
CNC(=O)[C@@H](NC(=O)c1nc(-c2ccc(Cl)cc2F)n2c1CN(C1CCNCC1)CCC2)C(C)(C)C [Compound 526, (S)-3-(4-chloro-2-fluorophenyl)-N-(3,3-dimethyl-1-(methylamino)-1-oxobutan-2-yl)-8-(piperidin-4-yl)-6,7,8,9-tetrahydro-5H-imidazo[1,5-a][1,4]diazepine-1-carboxamide] | > 10000 nM | 
